Among the data in ChEMBL document CHEMBL1146731, “Design, synthesis, and structure-activity relationships of pyrazolo[3,4-d]pyrimidines: a novel class of potent enterovirus inhibitors” (Bioorg Med Chem Lett, 2004) are IC50 values, retold here.

The subject of the first assay is Coxsackievirus. Put plainly: Inhibitory concentration of compound against formation of Coxsackievirus A10 plaque in plaque reduction assay. In kind it is functional, organism-based.
Conditions: not given
(In a plaque reduction assay, fewer plaques than in the control indicate reduced infectivity or spread.)
The IC50 is the concentration that inhibits the measured activity by half. Low readings indicate greater potency in that assay, high ones weaker potency in that assay. In turn, `c1ccc(C(c2ccccc2)N2CCN(c3ncnc4c3cnn4-c3ccccc3)CC2)cc1` gave an IC50 of 390 nM.

The next assay has as its system Enterovirus. The experiment in a line: Inhibitory concentration of compound against formation of Enterovirus 71 (2231) genotype C plaque in plaque reduction assay. In kind it is functional, organism-based.
Conditions: not given
`c1ccc(C(c2ccccc2)N2CCN(c3ncnc4c3cnn4-c3ccccc3)CC2)cc1` gave an IC50 of 520 nM.

The next assay has as its system Coxsackievirus. The experiment in a line: Inhibitory concentration of compound against formation of Coxsackievirus A24 plaque in plaque reduction assay. In kind it is functional, organism-based.
Conditions: not given
As to `c1ccc(C(c2ccccc2)N2CCN(c3ncnc4c3cnn4-c3ccccc3)CC2)cc1`, the IC50 is 50 nM.

The next assay concerns Coxsackievirus. The experiment in a line: Inhibitory concentration of compound against formation of Coxsackievirus A16 plaque in plaque reduction assay. It counts as functional, organism-based.
Conditions: not given
For `O=C1N(CCCCCCOc2ccc(Br)cc2)CCN1c1ccncc1`, the IC50 was > 25000 nM.
Same read-out and setting: as for `c1ccc(C(c2ccccc2)N2CCN(c3ncnc4c3cnn4-c3ccccc3)CC2)cc1`, the figure is 230 nM.

In another assay the test system is Echovirus. Put plainly: Inhibitory concentration of compound against formation of Echovirus 29 virus plaque in plaque reduction assay.
Conditions: not given
It counts as functional, organism-based.
For `O=C1N(CCCCCCOc2ccc(Br)cc2)CCN1c1ccncc1`, the IC50 is > 25000 nM.
For the compound `c1ccc(C(c2ccccc2)N2CCN(c3ncnc4c3cnn4-c3ccccc3)CC2)cc1`, the IC50 is > 25000 nM.

Another assay deals with Coxsackievirus. Put plainly: Inhibitory concentration of compound against formation of Coxsackievirus B5 plaque in plaque reduction assay. It counts as functional, organism-based.
Conditions: not given
Regarding `O=C1N(CCCCCCOc2ccc(Br)cc2)CCN1c1ccncc1`, the IC50 was > 25000 nM.
Consider `c1ccc(C(c2ccccc2)N2CCN(c3ncnc4c3cnn4-c3ccccc3)CC2)cc1`, for which the IC50 amounted to 440 nM.

The next assay relates to Human rhinovirus sp. The experiment in a line: Inhibitory concentration of compound against formation of Human rhinovirus 2 plaque in plaque reduction assay. In kind it is functional, organism-based.
Conditions: not given
With `O=C1N(CCCCCCOc2ccc(Br)cc2)CCN1c1ccncc1`, the IC50 was > 25000 nM.
In the case of `c1ccc(C(c2ccccc2)N2CCN(c3ncnc4c3cnn4-c3ccccc3)CC2)cc1`, the IC50 is > 25000 nM.

The subject of a further assay is Enterovirus. Put plainly: Inhibitory concentration of compound against formation of Enterovirus 71 (1743) genotype B plaque in plaque reduction assay. In kind it is functional, organism-based.
Conditions: not given
For `c1ccc(C(c2ccccc2)N2CCN(c3ncnc4c3cnn4-c3ccccc3)CC2)cc1`, 470 nM corresponded to half-maximal inhibition (IC50).

A further assay has as its system Influenza A virus. The experiment in a line: Inhibitory concentration of compound against formation of Influenza A virus (WSN) plaque in plaque reduction assay. It counts as functional, organism-based.
Conditions: not given
Consider `O=C1N(CCCCCCOc2ccc(Br)cc2)CCN1c1ccncc1`, for which the IC50 is > 25000 nM.
As for `c1ccc(C(c2ccccc2)N2CCN(c3ncnc4c3cnn4-c3ccccc3)CC2)cc1`, the IC50 is > 25000 nM.

Another assay has as its system Coxsackievirus. Put plainly: Inhibitory concentration of compound against formation of Coxsackievirus B4 plaque in plaque reduction assay. In kind it is functional, organism-based.
Conditions: not given
For `O=C1N(CCCCCCOc2ccc(Br)cc2)CCN1c1ccncc1`, the IC50 was > 25000 nM.
As to `c1ccc(C(c2ccccc2)N2CCN(c3ncnc4c3cnn4-c3ccccc3)CC2)cc1`, half-maximal inhibition (IC50) was put at 160 nM. This counts as sub-micromolar.

In the next assay the test system is Coxsackievirus. Put plainly: Inhibitory concentration of compound against formation of Coxsackievirus B2 plaque in plaque reduction assay.
Conditions: not given
In kind it is functional, organism-based.
`c1ccc(C(c2ccccc2)N2CCN(c3ncnc4c3cnn4-c3ccccc3)CC2)cc1` showed an IC50 of 80 nM.

In the next assay the test system is Coxsackievirus. Put plainly: Inhibitory concentration of compound against formation of Coxsackievirus B3 plaque in plaque reduction assay.
Conditions: not given
It counts as functional, organism-based.
For `O=C1N(CCCCCCOc2ccc(Br)cc2)CCN1c1ccncc1`, the IC50 was > 25000 nM.
`c1ccc(C(c2ccccc2)N2CCN(c3ncnc4c3cnn4-c3ccccc3)CC2)cc1` showed an IC50 of 150 nM.

A further assay deals with Enterovirus. The experiment in a line: Inhibitory concentration to prevent formation of Enterovirus (EV 71) plaques. It counts as functional, organism-based.
Conditions: not given
In the case of `FC(F)(F)c1ccc(C(c2ccccc2)N2CCN(c3ncnc4c3cnn4-c3ccccc3)CC2)cc1` (configuration not stated), the IC50 was determined as 1650 nM.
Compound `Cc1ccccc1C(c1ccccc1)N1CCN(c2ncnc3c2cnn3-c2ccccc2)CC1` (configuration not stated) gave a half-maximal inhibitory concentration (IC50) of 1980 nM. This IC50 and that of the compound before are within 1.5-fold of each other.
Turning to `c1ccc(Cn2ncc3c(N4CCN(C(c5ccccc5)c5ccccc5)CC4)ncnc32)cc1`, the IC50 was > 25000 nM.
As to `Cc1ccsc1C(c1ccccc1Br)N1CCN(c2ncnc3c2cnn3-c2ccccc2)CC1` (configuration not stated), half-maximal inhibition (IC50) required 320 nM.
As for `CCn1ncc2c(N3CCN(C(c4ccccc4)c4ccccc4)CC3)ncnc21`, the IC50 is > 25000 nM.
Consider `c1ccc(C(c2ccccc2)N2CCN(c3[nH]cnc4nncc3-4)CC2)cc1`, for which the IC50 was > 25000 nM.
`Cc1ccsc1C(c1ccccc1)N1CCN(c2ncnc3c2cnn3-c2ccccc2)CC1` (configuration not stated) displayed an IC50 of 460 nM.
Turning to `N#Cc1cccc(C(c2ccccc2)N2CCN(c3ncnc4c3cnn4-c3ccccc3)CC2)c1` (configuration not stated), half-maximal inhibition (IC50) was put at 780 nM.
As to `Cc1ccccc1C(c1sccc1C)N1CCN(c2ncnc3c2cnn3-c2ccccc2)CC1` (configuration not stated), the IC50 was 410 nM.
As for `Cn1ncc2c(N3CCN(C(c4ccccc4)c4ccccc4)CC3)ncnc21`, the IC50 was > 25000 nM.
In turn, `c1ccc(C(c2ccccc2)N2CCN(c3ncnc4c3cnn4-c3ccccc3)CC2)cc1` came in with a 50% inhibitory concentration (IC50) of 410 nM. This lies in the sub-micromolar range.

The test system of another assay is Rhabdomyosarcoma cell. The experiment in a line: Cytotoxic effect of compound towards human Rhabdomyosarcoma cell line was evaluated. In kind it is functional, cell-based.
Conditions: not given
Take `FC(F)(F)c1ccc(C(c2ccccc2)N2CCN(c3ncnc4c3cnn4-c3ccccc3)CC2)cc1` (configuration not stated): the IC50 was > 25000 nM.
Turning to `Cc1ccccc1C(c1ccccc1)N1CCN(c2ncnc3c2cnn3-c2ccccc2)CC1` (configuration not stated), the IC50 was > 25000 nM.
Regarding `c1ccc(Cn2ncc3c(N4CCN(C(c5ccccc5)c5ccccc5)CC4)ncnc32)cc1`, the IC50 is > 25000 nM.
Turning to `Cc1ccsc1C(c1ccccc1Br)N1CCN(c2ncnc3c2cnn3-c2ccccc2)CC1` (configuration not stated), the IC50 is > 25000 nM.
On the same count and under the same terms, as for `CCn1ncc2c(N3CCN(C(c4ccccc4)c4ccccc4)CC3)ncnc21`, the figure is > 25000 nM.
Take `c1ccc(C(c2ccccc2)N2CCN(c3[nH]cnc4nncc3-4)CC2)cc1`: the IC50 was > 25000 nM.
With `Cc1ccsc1C(c1ccccc1)N1CCN(c2ncnc3c2cnn3-c2ccccc2)CC1` (configuration not stated), the IC50 is > 25000 nM.
Same read-out and setting: as for `N#Cc1cccc(C(c2ccccc2)N2CCN(c3ncnc4c3cnn4-c3ccccc3)CC2)c1` (configuration not stated), the figure is > 25000 nM.
In the case of `Cc1ccccc1C(c1sccc1C)N1CCN(c2ncnc3c2cnn3-c2ccccc2)CC1` (configuration not stated), the half-inhibitory concentration (IC50) is > 25000 nM.
Regarding `Cn1ncc2c(N3CCN(C(c4ccccc4)c4ccccc4)CC3)ncnc21`, the concentration for half-maximal inhibition (IC50) is > 25000 nM.
Same read-out and setting: then `c1ccc(C(c2ccccc2)N2CCN(c3ncnc4c3cnn4-c3ccccc3)CC2)cc1`, with > 25000 nM.

The subject of a further assay is Human rhinovirus sp. The experiment in a line: Inhibitory concentration of compound against formation of Human rhinovirus 14 plaque in plaque reduction assay.
Conditions: not given
It counts as functional, organism-based.
`O=C1N(CCCCCCOc2ccc(Br)cc2)CCN1c1ccncc1` gave an IC50 of 11600 nM.
For `c1ccc(C(c2ccccc2)N2CCN(c3ncnc4c3cnn4-c3ccccc3)CC2)cc1`, the IC50 is > 25000 nM.

In another assay the test system is Influenza B virus. The experiment in a line: Inhibitory concentration of compound against formation of Influenza A virus (HK) plaque in plaque reduction assay. It counts as functional, organism-based.
Conditions: not given
In the case of `O=C1N(CCCCCCOc2ccc(Br)cc2)CCN1c1ccncc1`, the IC50 is > 25000 nM.
As to `c1ccc(C(c2ccccc2)N2CCN(c3ncnc4c3cnn4-c3ccccc3)CC2)cc1`, the IC50 is > 25000 nM.

For a further assay, the system named is Echovirus. Put plainly: Inhibitory concentration of compound against formation of Echovirus 9 virus plaque in plaque reduction assay. In kind it is functional, organism-based.
Conditions: not given
Consider `O=C1N(CCCCCCOc2ccc(Br)cc2)CCN1c1ccncc1`, for which the IC50 came out at 2820 nM.
For the compound `c1ccc(C(c2ccccc2)N2CCN(c3ncnc4c3cnn4-c3ccccc3)CC2)cc1`, 300 nM corresponded to half-maximal inhibition (IC50).

For the next assay, the system named is Coxsackievirus. Put plainly: Inhibitory concentration of compound against formation of Coxsackievirus B6 plaque in plaque reduction assay. In kind it is functional, organism-based.
Conditions: not given
For the compound `O=C1N(CCCCCCOc2ccc(Br)cc2)CCN1c1ccncc1`, the IC50 is > 25000 nM.
As to `c1ccc(C(c2ccccc2)N2CCN(c3ncnc4c3cnn4-c3ccccc3)CC2)cc1`, half-maximal inhibition (IC50) required 940 nM.

The subject of another assay is Enterovirus. Put plainly: Inhibitory concentration of compound against formation of Enterovirus 71 (BrCr) genotype A plaque in plaque reduction assay. In kind it is functional, organism-based.
Conditions: not given
With `c1ccc(C(c2ccccc2)N2CCN(c3ncnc4c3cnn4-c3ccccc3)CC2)cc1`, it took 350 nM to reach half-maximal inhibition (IC50).

In the next assay the test system is Coxsackievirus. The experiment in a line: Inhibitory concentration of compound against formation of Coxsackievirus B1 plaque in plaque reduction assay. In kind it is functional, organism-based.
Conditions: not given
For the compound `O=C1N(CCCCCCOc2ccc(Br)cc2)CCN1c1ccncc1`, the IC50 was > 25000 nM.

Still in this assay, the particulars now being: Coxsackievirus.
`c1ccc(C(c2ccccc2)N2CCN(c3ncnc4c3cnn4-c3ccccc3)CC2)cc1` yielded an IC50 of 690 nM.

Another assay has as its system Coxsackievirus. The experiment in a line: Inhibitory concentration to prevent formation of Coxsackievirus B3 (CVB3) plaques. In kind it is functional, organism-based.
Conditions: not given
For `FC(F)(F)c1ccc(C(c2ccccc2)N2CCN(c3ncnc4c3cnn4-c3ccccc3)CC2)cc1` (configuration not stated), the IC50 was 300 nM. In other words, the sub-micromolar range.
Compound `Cc1ccccc1C(c1ccccc1)N1CCN(c2ncnc3c2cnn3-c2ccccc2)CC1` (configuration not stated) showed an IC50 of 310 nM.
On the same count and under the same terms, then `c1ccc(Cn2ncc3c(N4CCN(C(c5ccccc5)c5ccccc5)CC4)ncnc32)cc1`, with > 25000 nM; and `Cc1ccsc1C(c1ccccc1Br)N1CCN(c2ncnc3c2cnn3-c2ccccc2)CC1` (configuration not stated), with 72 nM; and `CCn1ncc2c(N3CCN(C(c4ccccc4)c4ccccc4)CC3)ncnc21`, with > 25000 nM.
Regarding `c1ccc(C(c2ccccc2)N2CCN(c3[nH]cnc4nncc3-4)CC2)cc1`, the IC50 was > 25000 nM.
Turning to `Cc1ccsc1C(c1ccccc1)N1CCN(c2ncnc3c2cnn3-c2ccccc2)CC1` (configuration not stated), the IC50 is 89 nM.
Consider `N#Cc1cccc(C(c2ccccc2)N2CCN(c3ncnc4c3cnn4-c3ccccc3)CC2)c1` (configuration not stated), for which the IC50 worked out at 110 nM.
Compound `Cc1ccccc1C(c1sccc1C)N1CCN(c2ncnc3c2cnn3-c2ccccc2)CC1` (configuration not stated) had an IC50 of 84 nM.
As to `Cn1ncc2c(N3CCN(C(c4ccccc4)c4ccccc4)CC3)ncnc21`, the IC50 was > 25000 nM.
Still for that read-out and setting: as for `c1ccc(C(c2ccccc2)N2CCN(c3ncnc4c3cnn4-c3ccccc3)CC2)cc1`, the figure is 150 nM.

Another assay deals with Coxsackievirus. Put plainly: Inhibitory concentration of compound against formation of Coxsackievirus A9 plaque in plaque reduction assay.
Conditions: not given
It counts as functional, organism-based.
Regarding `c1ccc(C(c2ccccc2)N2CCN(c3ncnc4c3cnn4-c3ccccc3)CC2)cc1`, 260 nM corresponded to half-maximal inhibition (IC50). This lies in the sub-micromolar range.

The test system of another assay is Enterovirus. The experiment in a line: Inhibitory concentration of compound against formation of Enterovirus 68 (EV 68) plaque in plaque reduction assay. In kind it is functional, organism-based.
Conditions: not given
The compound `c1ccc(C(c2ccccc2)N2CCN(c3ncnc4c3cnn4-c3ccccc3)CC2)cc1` returned an IC50 of 180 nM.

The subject of another assay is Human alphaherpesvirus 1. The experiment in a line: Inhibitory concentration of compound against formation of Herpes simplex virus 1 plaque in plaque reduction assay.
Conditions: not given
As for `O=C1N(CCCCCCOc2ccc(Br)cc2)CCN1c1ccncc1`, the IC50 is > 25000 nM.
For the compound `c1ccc(C(c2ccccc2)N2CCN(c3ncnc4c3cnn4-c3ccccc3)CC2)cc1`, the IC50 was > 25000 nM.
